From patent KR20130112248A, “피라졸로피리미딘 유도체 화합물, 이를 포함하는 산화질소 생성 억제용 조성물 및 뇌신경 질환 예방 및 치료용 약학적 조성물” (한국과학기술연구원, priority 2012, dated 2013)

Each compound was assayed on NO production in BV-2 cells [NO 생성; BV-2 세포] (assay: Nitric oxide (NO) quantification (nitrite, Griess reaction) in LPS-activated BV-2 cells). Conditions: 20 μM, LPS 0.2 ㎍/mL, 24 h co-treatment, nitrite by Griess at 540 nm.
Assay type: cell-based

| Compound | NO (% of LPS) |
| --- | --- |
| 1-(2-메톡시펜에틸)-N-(4-메톡시벤질)-6-(메틸설포닐)-1H-피라졸로[3,4-d]피리미딘-4-아민 [화합물 23zb] | 49±2.9 % of LPS |

Same assay, conditions: 20 μM, LPS 0.2 ㎍/mL, 24 h co-treatment, nitrite by Griess at 540 nm, 1440 min

| Compound | NO (% of LPS) |
| --- | --- |
| CC(Nc1nc(S(C)(=O)=O)nc2c1cnn2Cc1ccccc1)c1ccccc1 (single isomer, unassigned) [화합물 23r, 1-벤질-6-(메틸설포닐)-N-(1-페닐에틸)-1H-피라졸로[3,4-d]피리미딘-4-아민] | 87±7.1 % of LPS |

Same assay, conditions: Mus musculus, BV-2, 24 h, 20 μM, LPS 0.2 ㎍/mL, 24 h co-treatment, nitrite by Griess at 540 nm

| Compound | activity at 20 µM |
| --- | --- |
| CSc1nc2c(cnn2C(C)(C)C)c(=S)[nH]1 [9d, 1-t-뷰틸-6-(메틸티오)피라졸로[3,4-d]피리미딘-4-티온] | 108 ± 5% |
| CSc1nc(Cl)c(C(=O)c2ccccc2)c(Cl)n1 [compound 29, 1-[(4,6-다이클로로-2-(메틸티오)피리미딘)-5-일]-페닐케톤] | 35 ± 12% |
| COc1ccc([C@H](C)Nc2nc(SC)nc3c2cnn3-c2ccc(C)cc2)cc1 [화합물 21j, N-((S)-1-(4-메톡시페닐)에틸)-6-(메틸티오)-1-p-톨릴-1H-피라졸로[3,4-d]피리미딘-4-아민] | 52 ± 1.7% |
| Cc1ccc(C(C)Nc2nc(S(C)(=O)=O)nc3c2cnn3Cc2ccccc2)cc1 (centres unmarked) [화합물 23u, 1-벤질-6-(메틸설포닐)-N-(1-p-톨릴에틸)-1H-피라졸로[3,4-d]피리미딘-4-아민] | 120 ± 3.1% |
| CSc1nc(NCCc2ccccc2)c2c(-c3ccccc3)nn(-c3ccccc3)c2n1 [화합물 31e, 1-페닐-3-페닐-4-(2-페닐에틸)아미노-6-(메틸티오)피라졸로[3,4-d]피리미딘] | 105 ± 10% |
| CSc1nc(N[C@H](C)C2CCCCC2)c2cnn(-c3ccccc3)c2n1 [화합물 15r, (R)-1-페닐-4-(1-사이클로헥실에틸)아미노-6-(메틸티오)피라졸로[3,4-d]피리미딘] | 41 ± 1% |
| CSc1nc(N2CCCCC2)c2cn[nH]c2n1 [6s, 4-피페리디노-6-(메틸티오)피라졸로[3,4-d]피리미딘] | 85 ± 15% |
| C=CCn1ncc2c(NCc3ccc(OC)cc3)nc(SC)nc21 [화합물 13m, N-(4-메톡시벤질)-1-알릴-6-(메틸티오)-1H-피라졸로[3,4-d]피리미딘-4-아민] | 8.6 ± 2.7% |
| CSc1nc(N[C@H](C)c2ccccc2)c2cnn(C(C)(C)C)c2n1 [화합물 17b, (R)-1-t-뷰틸-4-(1-페닐에틸)아미노-6-(메틸티오)피라졸로[3,4-d]피리미딘] | 61 ± 1% |
| CSc1nc(NCc2ccccn2)c2cnn(C(C)(C)C)c2n1 [화합물 17m, 1-t-뷰틸-6-(메틸티오)-N-((피리딘-2-일)메틸)-1H-피라졸로[3,4-d]피리미딘-4-아민] | 92 ± 6.6% |
| CSc1nc(Sc2ccc(F)cc2)c2cnn(Cc3ccccc3)c2n1 [화합물 16u, 4-(4-플루오로페닐티오)-1-벤질-6-(메틸티오)-1H-피라졸로[3,4-d]피리미딘] | 28 ± 1.8% |
| CSc1nc(NCc2ccc(C)cc2)c2cnn(-c3ccc(F)cc3)c2n1 [화합물 20f, N-(4-메틸벤질)-1-(4-프루오로페닐)-6-(메틸티오)-1H-피라졸로[3,4-d]피리미딘-4-아민] | 62 ± 3.8% |
| CSc1nc(NCc2ccccn2)c2cn[nH]c2n1 [6y, 6-(메틸티오)-N-((피리딘-2-일)메틸)-1H-피라졸로[3,4-d]피리미딘-4-아민] | 90 ± 2.9% |
| COc1ccccc1CNc1nc(S(C)(=O)=O)nc2c1cnn2-c1ccccc1 [화합물 23c, N-(2-메톡시벤질)-6-(메틸설포닐)-1-페닐-1H-피라졸로[3,4-d]피리미딘-4-아민] | 41 ± 2.3% |
| COc1cccc(CNc2nc(SC)nc3c2cnn3C(C)(C)C)c1 [화합물 17k, N-(3-메톡시벤질)-1-t-뷰틸-6-(methylthio)-1H-피라졸로[3,4-d]피리미딘-4-아민] | 51 ± 5% |
| COc1cccc(CCn2ncc3c(NCc4ccccc4OC)nc([S+](C)[O-])nc32)c1 (centres unmarked) [화합물 22l, N-(2-메톡시벤질)-1-(3-메톡시펜에틸)-6-(메틸설파이닐)-1H-피라졸로[3,4-d]피리미딘-4-아민] | 60 ± 3.3% |
| CCCCNc1nc(SC)nc2c1cnn2-c1ccccc1 [화합물 15t, 1-페닐-4-n-뷰틸아미노-6-(메틸티오)피라졸로[3,4-d]피리미딘] | 48 ± 8% |
| CSc1nc(NCc2ccc(C)cc2)c2cn[nH]c2n1 [6q, 4-(4-메틸벤질)아미노-6-(메틸티오)피라졸로[3,4-d]피리미딘] | 90 ± 15% |
| CC(Nc1nc(NCCOCCO)nc2c1cnn2Cc1ccccc1)c1ccccc1 (centres unmarked) [화합물 24d, 2-(2-(4-(1-페닐에틸아미노)-1-벤질-1H-피라졸로[3,4-d]피리미딘-6-일아미노)에톡시)에탄올] | 130 ± 1.8% |
| COc1cccc(CNc2nc(SC)nc3c2cnn3-c2ccc(F)cc2)c1 [화합물 20d, N-(3-메톡시벤질)-1-(4-플루오로페닐)-6-(메틸티오)-1H-피라졸로[3,4-d]피리미딘-4-아민] | 43 ± 5.9% |
| CSc1nc(NCCc2ccccc2)c2cnn(C)c2n1 [12g, 1-메틸-4-(2-페닐에틸)아미노-6-(메틸티오)피라졸로[3,4-d]피리미딘] | 92 ± 1% |
| CSc1nc(NCc2ccc(F)cc2)c2c(-c3ccccc3)nn(Cc3ccccc3)c2n1 [32c, 1-벤질-3-페닐-4-(4-플루오로벤질)아미노-6-(메틸티오)피라졸로[3,4-d]피리미딘] | 69 ± 8% |
| C=CCNc1nc(SC)nc2[nH]ncc12 [6b, 4-알릴아미노-6-(메틸티오)피라졸로[3,4-d]피리미딘] | 100 ± 4% |
| C=CCn1ncc2c(NCc3ccccc3OC)nc(SC)nc21 [화합물 13e, N-(2-메톡시벤질)-1-알릴-6-(메틸티오)-1H-피라졸로[3,4-d]피리미딘-4-아민] | 22.4 ± 0.4% |
| COc1ccc(CNc2nc(SC)nc3c2cnn3CCc2ccccc2OC)cc1 [화합물 19b, 1-(2-메톡시펜에틸)-N-(4-메톡시벤질)-6-(메틸티오)-1H-피라졸로[3,4-d]피리미딘-4-아민] | 27 ± 6.8% |
| CSc1nc(SCCCCl)c2cnn(Cc3ccccc3)c2n1 [화합물 16o, 4-(3-클로로프로필티오)-1-벤질-6-(메틸티오)-1H-피라졸로[3,4-d]피리미딘] | 43 ± 4.6% |

| Compound | activity at 20 µM |
| --- | --- |
| COc1cccc(CNc2nc(SC)nc3c2cnn3CCc2ccccc2OC)c1 [화합물 19a, 1-(2-메톡시펜에틸)-N-(3-메톡시벤질)-6-(메틸티오)-1H-피라졸로[3,4-d]피리미딘-4-아민] | 32 ± 1.1% |
| COc1ccccc1CNc1nc([S+](C)[O-])nc2c1cnn2-c1ccccc1 (centres unmarked) [화합물 22b, N-(2-메톡시벤질)-6-(메틸설파이닐)-1-페닐-1H-피라졸로[3,4-d]피리미딘-4-아민] | 28 ± 4.1% |
| CSc1nc(NCCc2ccccc2)c2cnn(C(C)(C)C)c2n1 [화합물 17h, 1-t-뷰틸-4-(2-페닐에틸)아미노-6-(메틸티오)피라졸로[3,4-d]피리미딘] | 61 ± 1% |
| COc1ccccc1CNc1nc(SC)nc2c1cnn2-c1ccc(F)cc1 [화합물 20b, N-(2-메톡시벤질)-1-(4-플루오로페닐)-6-(메틸티오)-1H-피라졸로[3,4-d]피리미딘-4-아민] | 48 ± 27.1% |
| COc1ccccc1CNc1nc(SC)nc2c1cnn2-c1ccc(C)cc1 [화합물 21b, N-(2-메톡시벤질)-6-(메틸티오)-1-p-톨릴-1H-피라졸로[3,4-d]피리미딘-4-아민] | 44 ± 25.2% |
| CSc1nc(N(CCO)CCO)c2cnn(C)c2n1 [12c, 1-메틸-4-비스(1-하이드록시에틸)아미노-6-(메틸티오)피라졸로[3,4-d]피리미딘] | 115 ± 6% |
| COc1cccc(CCn2ncc3c(NCc4ccccc4OC)nc(S(C)(=O)=O)nc32)c1 [화합물 23x, N-(2-메톡시벤질)-1-(3-메톡시펜에틸)-6-(메틸설포닐)-1H-피라졸로[3,4-d]피리미딘-4-아민] | 35 ± 4.3% |
| COc1ccccc1CNc1nc(S(C)(=O)=O)nc2c1cnn2-c1ccc(F)cc1 [화합물 23i, N-(2-메톡시벤질)-1-(4-플루오로페닐)-6-(메틸설포닐)-1H-피라졸로[3,4-d]피리미딘-4-아민] | 35 ± 7.3% |
| COc1ccccc1CCn1ncc2c(NCc3ccccc3C)nc(SC)nc21 [화합물 19g, N-(2-메톡시벤질)-1-(2-메톡시펜에틸)-6-(메틸티오)-1H-피라졸로[3,4-d]피리미딘-4-아민] | 27.4 ± 0.7% |
| C=CCn1ncc2c(NCCCC)nc(SC)nc21 [화합물 13l, 1-알릴-N-뷰틸-6-(메틸티오)-1H-피라졸로[3,4-d]피리미딘-4-아민] | 43.3 ± 1.1% |
| CSc1ncc2cnn(-c3ccccc3)c2n1 [7b, 1-페닐-6-(메틸티오)피라졸로[3,4-d]피리미딘] | 78 ± 4% |
| CSc1nc(NCc2ccccn2)c2cnn(-c3ccccc3)c2n1 [화합물 15j, 1-페닐-4-[(피리딘-2-일)메틸]아미노-6-(메틸티오)피라졸로[3,4-d]피리미딘] | 30 ± 14% |
| CSc1nc(Sc2ccc(Cl)cc2)c2cnn(Cc3ccccc3)c2n1 [화합물 16r, 4-(4-클로로페닐티오)-1-벤질-6-(메틸티오)-1H-피라졸로[3,4-d]피리미딘] | 20 ± 1.9% |
| CSc1nc(NCCc2ccccc2)c2cnn(-c3ccccc3)c2n1 [화합물 15b, 1-페닐-4-(2-페닐에틸)아미노-6-(메틸티오)피라졸로[3,4-d]피리미딘] | 72 ± 8% |
| CSc1nc(N2CCN(C)CC2)c2cnn(-c3ccccc3)c2n1 [화합물 15u, 1-페닐-4-(4-메틸)피페라지노-6-(메틸티오)피라졸로[3,4-d]피리미딘] | 64% |
| COc1ccc(CNc2nc(SC)nc3c2cnn3C)cc1 [12h, 1-메틸-4-(4-메톡시벤질)아미노-6-(메틸티오)피라졸로[3,4-d]피리미딘] | 33 ± 10% |
| CSc1nc(NCc2ccccc2C)c2cnn(CCO)c2n1 [화합물 27g, 2-(4-(2-메틸벤질아미노)-6-(메틸티오)-1H-피라졸로[3,4-d]피리미딘-1-일)에탄올] | 82 ± 2.5% |
| C=CCn1ncc2c(NCc3ccc(C)cc3)nc(SC)nc21 [화합물 13g, N-(4-메틸벤질)-1-알릴-6-(메틸티오)-1H-피라졸로[3,4-d]피리미딘-4-아민] | 12.2 ± 3.8% |
| COc1cccc(CCn2ncc3c(NCc4ccccc4OC)nc(SC)nc32)c1 [화합물 18b, N-(2-메톡시벤질)-1-(3-메톡시펜에틸)-6-(메틸티오)-1H-피라졸로[3,4-d]피리미딘-4-아민] | 37 ± 17.6% |
| COc1ccc(CNc2nc(SC)nc3c2cnn3CCNC(=O)OC(C)(C)C)cc1 [화합물 14j, 2-(4-(4-메톡시벤질아미노)-6-(메틸티오)-1H-피라졸로[3,4-d]피리미딘-1-일)에틸카바메이트] | 25.8 ± 3% |
| CSc1nc(NCc2ccc(F)cc2)c2cn[nH]c2n1 [6d, 4-(4-플루오로벤질)아미노-6-(메틸티오)피라졸로[3,4-d]피리미딘] | 84 ± 8% |
| CSc1nc(NCCCn2ccnc2)c2cnn(C)c2n1 [12d, 1-메틸-4-[3-(이미다졸-1-일)]프로필아미노-6-(메틸티오)피라졸로[3,4-d]피리미딘] | 75 ± 1% |
| CC(Nc1nc(NCc2ccccc2)nc2c1cnn2Cc1ccccc1)c1ccccc1 (centres unmarked) [화합물 24e, N6,1-디벤질-N4-(1-페닐에틸)-1-벤질-1H-피라졸로[3,4-d]피리미딘-4,6-디아민] | 41 ± 16.3% |
| CSc1nc(NC(C)c2ccc(C)cc2)c2cnn(-c3ccccc3)c2n1 (centres unmarked) [화합물 15zb, 6-(메틸티오)-1-페닐-N-(1-p-톨릴에틸)-1H-피라졸로[3,4-d]피리미딘-4-아민] | 51 ± 0.1% |
| CSc1nc(Cl)c2cnn(CCOC3CCCCO3)c2n1 (centres unmarked) [5c, 1-[2-(테트라하이드로피란-2-일옥시)에틸]-4-클로로-6-(메틸티오)피라졸로[3,4-d]피리미딘] | 49 ± 9% |
| COc1ccc(CNc2nc(SC)nc3[nH]ncc23)cc1 [6x, N-(4-메톡시벤질)-6-(메틸티오)-1H-피라졸로[3,4-d]피리미딘-4-아민] | 115 ± 3.2% |

Same assay, conditions: Mus musculus, BV-2, 24 h, 30 μM, LPS 0.2 ㎍/mL, 24 h co-treatment, nitrite by Griess at 540 nm

| Compound | activity at 30 µM |
| --- | --- |
| CSc1ncc2cn[nH]c2n1 [7a, 6-(메틸티오)피라졸로[3,4-d]피리미딘] | 79 ± 1% |
| COc1nc(SC)nc2[nH]nc(I)c12 [11d, 3-아이오도-4-메톡시-6-(메틸티오)피라졸로[3,4-d]피리미딘] | 91 ± 3% |
